Measurements: the NIST ThermoML archive (doi:10.1021/je049762q)
Numbers after ± are expanded uncertainties.

Assay: molar heat capacity at constant pressure
Conditions: 101.33 kPa, Crystal

Brc1ccc(Br)cc1 [1,4-dibromobenzene]
molar heat capacity at constant pressure (5.27 K): 1.01 ± 0.04 J/K/mol | molar heat capacity at constant pressure (5.8 K): 1.18 ± 0.04 J/K/mol | molar heat capacity at constant pressure (6.45 K): 1.36 ± 0.05 J/K/mol | molar heat capacity at constant pressure (6.5 K): 1.38 ± 0.05 J/K/mol | molar heat capacity at constant pressure (7.46 K): 2.31 ± 0.06 J/K/mol | molar heat capacity at constant pressure (7.64 K): 2.66 ± 0.07 J/K/mol | molar heat capacity at constant pressure (7.71 K): 2.81 ± 0.07 J/K/mol | molar heat capacity at constant pressure (8.52 K): 3.67 ± 0.08 J/K/mol | molar heat capacity at constant pressure (8.77 K): 3.87 ± 0.08 J/K/mol | molar heat capacity at constant pressure (9.03 K): 4.08 ± 0.09 J/K/mol | molar heat capacity at constant pressure (9.52 K): 4.41 ± 0.09 J/K/mol | molar heat capacity at constant pressure (10 K): 5.01 ± 0.1 J/K/mol | molar heat capacity at constant pressure (10.07 K): 5.11 ± 0.1 J/K/mol | molar heat capacity at constant pressure (10.26 K): 5.43 ± 0.11 J/K/mol | molar heat capacity at constant pressure (10.6 K): 5.83 ± 0.11 J/K/mol | molar heat capacity at constant pressure (11.8 K): 6.63 ± 0.12 J/K/mol | molar heat capacity at constant pressure (12.15 K): 7.18 ± 0.13 J/K/mol | molar heat capacity at constant pressure (12.41 K): 7.69 ± 0.13 J/K/mol | molar heat capacity at constant pressure (12.47 K): 7.8 ± 0.14 J/K/mol | molar heat capacity at constant pressure (13.6 K): 9.64 ± 0.16 J/K/mol | molar heat capacity at constant pressure (14.05 K): 10.68 ± 0.17 J/K/mol | molar heat capacity at constant pressure (14.2 K): 10.78 ± 0.17 J/K/mol | molar heat capacity at constant pressure (15 K): 12.33 ± 0.19 J/K/mol | molar heat capacity at constant pressure (15.55 K): 13.29 ± 0.2 J/K/mol | molar heat capacity at constant pressure (15.57 K): 13.3 ± 0.2 J/K/mol | molar heat capacity at constant pressure (15.9 K): 13.84 ± 0.2 J/K/mol | molar heat capacity at constant pressure (16.68 K): 14.94 ± 0.21 J/K/mol | molar heat capacity at constant pressure (17.46 K): 16.03 ± 0.22 J/K/mol | molar heat capacity at constant pressure (17.68 K): 16.47 ± 0.22 J/K/mol | molar heat capacity at constant pressure (17.94 K): 16.83 ± 0.23 J/K/mol | molar heat capacity at constant pressure (18.59 K): 17.79 ± 0.23 J/K/mol | molar heat capacity at constant pressure (19.73 K): 19.51 ± 0.24 J/K/mol | molar heat capacity at constant pressure (20 K): 19.9 ± 0.24 J/K/mol | molar heat capacity at constant pressure (20.25 K): 20.25 ± 0.25 J/K/mol | molar heat capacity at constant pressure (22.16 K): 22.72 ± 0.25 J/K/mol | molar heat capacity at constant pressure (22.64 K): 23.37 ± 0.26 J/K/mol | molar heat capacity at constant pressure (23.84 K): 25.08 ± 0.26 J/K/mol | molar heat capacity at constant pressure (24.7 K): 25.82 ± 0.26 J/K/mol | molar heat capacity at constant pressure (25 K): 26.17 ± 0.26 J/K/mol | molar heat capacity at constant pressure (26.55 K): 28 ± 0.25 J/K/mol | molar heat capacity at constant pressure (27.15 K): 28.54 ± 0.25 J/K/mol | molar heat capacity at constant pressure (28.82 K): 30.45 ± 0.24 J/K/mol | molar heat capacity at constant pressure (29.32 K): 30.8 ± 0.24 J/K/mol | molar heat capacity at constant pressure (30 K): 31.55 ± 0.21 J/K/mol | molar heat capacity at constant pressure (31.01 K): 32.68 ± 0.21 J/K/mol | molar heat capacity at constant pressure (31.27 K): 32.7 ± 0.21 J/K/mol | molar heat capacity at constant pressure (33.06 K): 34.41 ± 0.22 J/K/mol | molar heat capacity at constant pressure (33.29 K): 34.82 ± 0.22 J/K/mol | molar heat capacity at constant pressure (35.63 K): 36.98 ± 0.23 J/K/mol | molar heat capacity at constant pressure (38.01 K): 38.95 ± 0.24 J/K/mol | molar heat capacity at constant pressure (40 K): 40.38 ± 0.24 J/K/mol | molar heat capacity at constant pressure (40.43 K): 40.7 ± 0.24 J/K/mol | molar heat capacity at constant pressure (42.9 K): 42.52 ± 0.25 J/K/mol | molar heat capacity at constant pressure (45.4 K): 44.29 ± 0.26 J/K/mol | molar heat capacity at constant pressure (47.94 K): 45.99 ± 0.26 J/K/mol | molar heat capacity at constant pressure (50 K): 47.3 ± 0.27 J/K/mol | molar heat capacity at constant pressure (50.51 K): 47.61 ± 0.27 J/K/mol | molar heat capacity at constant pressure (53.12 K): 49.13 ± 0.28 J/K/mol | molar heat capacity at constant pressure (55.75 K): 50.72 ± 0.28 J/K/mol | molar heat capacity at constant pressure (58.41 K): 52.22 ± 0.29 J/K/mol | molar heat capacity at constant pressure (60 K): 53.1 ± 0.29 J/K/mol | molar heat capacity at constant pressure (61.09 K): 53.7 ± 0.3 J/K/mol | molar heat capacity at constant pressure (63.8 K): 55.15 ± 0.3 J/K/mol | molar heat capacity at constant pressure (66.54 K): 56.56 ± 0.31 J/K/mol | molar heat capacity at constant pressure (69.3 K): 57.98 ± 0.31 J/K/mol | molar heat capacity at constant pressure (70 K): 58.33 ± 0.31 J/K/mol | molar heat capacity at constant pressure (72.07 K): 59.33 ± 0.32 J/K/mol | molar heat capacity at constant pressure (74.86 K): 60.72 ± 0.32 J/K/mol | molar heat capacity at constant pressure (77.68 K): 62.03 ± 0.33 J/K/mol | molar heat capacity at constant pressure (80 K): 63.11 ± 0.33 J/K/mol | molar heat capacity at constant pressure (80.51 K): 63.35 ± 0.33 J/K/mol | molar heat capacity at constant pressure (83.36 K): 64.67 ± 0.34 J/K/mol | molar heat capacity at constant pressure (86.22 K): 65.91 ± 0.34 J/K/mol | molar heat capacity at constant pressure (89.08 K): 67.21 ± 0.35 J/K/mol | molar heat capacity at constant pressure (89.28 K): 67.47 ± 0.35 J/K/mol | molar heat capacity at constant pressure (90 K): 67.83 ± 0.54 J/K/mol | molar heat capacity at constant pressure (91.9 K): 68.39 ± 0.54 J/K/mol | molar heat capacity at constant pressure (92.15 K): 68.67 ± 0.54 J/K/mol | molar heat capacity at constant pressure (94.65 K): 69.5 ± 0.54 J/K/mol | molar heat capacity at constant pressure (95.04 K): 69.84 ± 0.54 J/K/mol | molar heat capacity at constant pressure (97.35 K): 70.59 ± 0.54 J/K/mol | molar heat capacity at constant pressure (97.94 K): 71.11 ± 0.54 J/K/mol | molar heat capacity at constant pressure (100 K): 71.7 ± 0.54 J/K/mol | molar heat capacity at constant pressure (100.85 K): 72.3 ± 0.54 J/K/mol | molar heat capacity at constant pressure (102.59 K): 72.97 ± 0.55 J/K/mol | molar heat capacity at constant pressure (103.77 K): 73.61 ± 0.55 J/K/mol | molar heat capacity at constant pressure (105.15 K): 73.98 ± 0.55 J/K/mol | molar heat capacity at constant pressure (106.7 K): 74.69 ± 0.55 J/K/mol | molar heat capacity at constant pressure (109.64 K): 75.86 ± 0.55 J/K/mol | molar heat capacity at constant pressure (110 K): 76 ± 0.55 J/K/mol | molar heat capacity at constant pressure (112.58 K): 77.06 ± 0.55 J/K/mol | molar heat capacity at constant pressure (115.54 K): 78.22 ± 0.56 J/K/mol | molar heat capacity at constant pressure (118.5 K): 79.39 ± 0.56 J/K/mol | molar heat capacity at constant pressure (120 K): 79.98 ± 0.56 J/K/mol | molar heat capacity at constant pressure (121.46 K): 80.54 ± 0.56 J/K/mol | molar heat capacity at constant pressure (124.44 K): 81.71 ± 0.56 J/K/mol | molar heat capacity at constant pressure (127.42 K): 82.85 ± 0.57 J/K/mol | molar heat capacity at constant pressure (130 K): 83.85 ± 0.57 J/K/mol | molar heat capacity at constant pressure (130.4 K): 84.01 ± 0.57 J/K/mol | molar heat capacity at constant pressure (133.39 K): 85.14 ± 0.57 J/K/mol | molar heat capacity at constant pressure (136.39 K): 86.25 ± 0.57 J/K/mol | molar heat capacity at constant pressure (139.39 K): 87.37 ± 0.57 J/K/mol | molar heat capacity at constant pressure (140 K): 87.59 ± 0.58 J/K/mol | molar heat capacity at constant pressure (142.39 K): 88.47 ± 0.58 J/K/mol | molar heat capacity at constant pressure (145.4 K): 89.57 ± 0.58 J/K/mol | molar heat capacity at constant pressure (148.41 K): 90.66 ± 0.58 J/K/mol | molar heat capacity at constant pressure (150 K): 91.25 ± 0.58 J/K/mol | molar heat capacity at constant pressure (151.43 K): 91.77 ± 0.58 J/K/mol | molar heat capacity at constant pressure (154.45 K): 92.84 ± 0.59 J/K/mol
